The values that follow come from patent US5684151A, “1-arylsulphonyl, arylcarbonyl and 1-arylphosphonyl-3-phenyl-1,4,5,6-tetrahydropyridazines” (priority 1995, dated 1997).

A word on the IC50: it is the concentration at which inhibition is half-maximal.

The structures appear in SMILES notation. Where two headings read alike, the source gives them in different places.

The subject of assay [1] is mouse (MC3T3-E1) and human (TE-85) osteoblast-line cells. It is filed as cell-based. In a few lines:
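Proliferation was read as ^3H-thymidine (0.4 μCi) uptake during a 4 h pulse, which started 20 h after compound addition. Before dosing, cells sat 24 h in 0.1% FBS. Values are % times control (100%).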

Assay [2] addresses T1, progestin receptor from rabbit uterus (Oryctolagus cuniculus, UniProt P06186).
T1 construct: Cytosolic progestin receptor were obtained by mixing rabbit uterine tissue with a Tris buffer; from tissue; host or cells: rabbit uterus cytosol
Put plainly: Progestin receptor binding (3H-R5020 displacement). To be noted: rabbit uterine cytosol, 4° C., 18 h, read-out: IC50: Binding affinity for the progestin receptor from rabbit uterus. In a few lines: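 Displacement of the radioligand 3H-R5020 was measured in cytosol from homogenized rabbit uterus (pH 7.4 Tris/EDTA/DTT/molybdate buffer), with compounds at 5% final DMSO and about 18 h at 4 °C. Charcoal removed free ligand, scintillation counting quantified bound ligand, and IC50 was the concentration displacing half.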

Assay [3] concerns Human T47D breast carcinoma cells. Put plainly: Ex vivo progestational test (T47D proliferation). It counts as cell-based. To be noted: SC200, 3H-thymidine incorporation. For orientation: Dividing cells build labelled thymidine or BrdU into new DNA.
For assay [4], the system named is mature female rabbits. Kind of assay: Additional test to determine bone growth activity (bone density by dual X-ray densitometry). It counts as in vivo, rabbit. To be noted: oral once daily, 12 weeks, vs vehicle treated control. As to the method:
Test compounds were orally administered once daily to mature female rabbits for 12 weeks. Bone density was measured by dual X-ray densitometry and results were expressed as % base line bone mineral content.

T1 sequence (P06186 whole entry): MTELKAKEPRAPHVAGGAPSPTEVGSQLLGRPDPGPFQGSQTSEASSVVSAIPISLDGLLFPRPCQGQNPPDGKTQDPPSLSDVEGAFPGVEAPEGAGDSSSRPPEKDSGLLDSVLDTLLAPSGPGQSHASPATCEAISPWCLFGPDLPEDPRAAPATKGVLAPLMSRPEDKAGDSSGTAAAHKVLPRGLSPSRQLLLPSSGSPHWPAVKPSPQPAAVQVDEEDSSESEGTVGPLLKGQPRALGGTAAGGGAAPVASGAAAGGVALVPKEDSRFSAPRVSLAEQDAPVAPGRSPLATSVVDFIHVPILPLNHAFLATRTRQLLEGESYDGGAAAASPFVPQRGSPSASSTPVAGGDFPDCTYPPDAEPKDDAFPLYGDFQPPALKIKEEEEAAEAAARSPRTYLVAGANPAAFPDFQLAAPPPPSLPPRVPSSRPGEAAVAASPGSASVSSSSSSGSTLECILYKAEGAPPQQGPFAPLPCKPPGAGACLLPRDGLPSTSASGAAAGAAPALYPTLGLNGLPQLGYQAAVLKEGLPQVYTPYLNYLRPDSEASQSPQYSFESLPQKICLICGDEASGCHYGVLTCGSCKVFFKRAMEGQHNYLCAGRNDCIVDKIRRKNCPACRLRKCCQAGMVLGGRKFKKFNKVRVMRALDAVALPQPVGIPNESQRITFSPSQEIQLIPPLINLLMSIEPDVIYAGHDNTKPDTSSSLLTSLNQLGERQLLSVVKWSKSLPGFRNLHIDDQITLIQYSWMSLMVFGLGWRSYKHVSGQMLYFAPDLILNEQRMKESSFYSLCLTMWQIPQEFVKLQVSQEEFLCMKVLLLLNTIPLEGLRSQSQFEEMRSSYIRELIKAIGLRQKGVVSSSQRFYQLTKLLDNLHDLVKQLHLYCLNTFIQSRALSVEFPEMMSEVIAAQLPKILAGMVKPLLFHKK

As to `O=C(c1ccc(Cl)c(Cl)c1)N1CCCC(c2ccccc2)=N1` [Compound 185, 1-(3,4-dichlorobenzoyl)-3-phenyl-1,4,5,6-tetrahydropyridazine], the “Osteoblast Cell Proliferation, 3H-thymidine incorporation vs control (100%)” value in assay [1] (10^-6) is reported as 98%; in assay [1] (10^-7), 136%; in assay [1] (10^-8), 147%; in assay [1] (10^-9), 131%; in assay [1] (10^-10), 128%. Further, the IC50 in assay [2] came out at 3.56 µM. Also, the “T47D: Concentration to elicit a 200% increase in T47D Human breast cell proliferation” value in assay [3] is reported as 10000. The bone mineral content entry in assay [4] is reported as “significant increase in bone mineral content”.
